# Publication PMC9636434, “Discovery of small molecule agonists of the Relaxin Family Peptide Receptor 2” (Communications Biology, 2022)
# “And” between values parts separate entries of the source, which are not always exact repeats. Equal entries are not always repeated.
# Target: T1, mouse RXFP1 (Mus musculus, UniProt Q6R6I7)
# T1 construct: FLAG (N); expressed in transfected cells
# T1 sequence (Q6R6I7 1-758): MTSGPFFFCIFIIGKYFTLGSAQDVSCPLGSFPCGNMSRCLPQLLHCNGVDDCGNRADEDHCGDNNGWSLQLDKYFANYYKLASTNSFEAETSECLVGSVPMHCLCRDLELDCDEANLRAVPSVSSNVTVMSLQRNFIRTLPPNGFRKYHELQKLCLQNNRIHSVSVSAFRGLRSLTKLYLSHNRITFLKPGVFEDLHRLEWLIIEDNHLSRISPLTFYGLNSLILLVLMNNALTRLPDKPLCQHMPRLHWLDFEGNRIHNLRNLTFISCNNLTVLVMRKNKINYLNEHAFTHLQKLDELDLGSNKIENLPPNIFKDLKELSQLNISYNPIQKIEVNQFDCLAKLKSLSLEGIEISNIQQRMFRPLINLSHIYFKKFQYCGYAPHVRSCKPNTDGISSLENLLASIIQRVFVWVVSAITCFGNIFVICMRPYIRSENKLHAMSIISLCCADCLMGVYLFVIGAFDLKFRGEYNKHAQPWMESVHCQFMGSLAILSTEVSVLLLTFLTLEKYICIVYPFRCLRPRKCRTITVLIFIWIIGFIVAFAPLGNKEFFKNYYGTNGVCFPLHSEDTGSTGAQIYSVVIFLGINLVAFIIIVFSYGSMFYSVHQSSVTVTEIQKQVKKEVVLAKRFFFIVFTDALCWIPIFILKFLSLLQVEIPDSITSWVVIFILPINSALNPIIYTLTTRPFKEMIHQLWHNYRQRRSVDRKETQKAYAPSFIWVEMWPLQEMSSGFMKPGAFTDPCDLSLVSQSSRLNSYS
# Assay: HTRF cAMP counter-screen in HEK293T cells expressing mouse RXFP1
# Type: cell-based
# Settings: for % Eff (cAMP): mouse RXFP1, experiments (1)-(3)
# Procedure: The HTRF Gs dynamic cAMP assay kit (CisBio, Bedford, MA) was used to measure intracellular cAMP accumulation in HEK293T cells (ATCC, Manassas, VA)[56]. […] The cell stock was verified mycoplasma free and authenticated by ATCC. Transient transfection was accomplished by treating cells in a 6-well plate with a mixture of 2 μg plasmid and 6 μL Lipofectamine 2000 (Invitrogen, Waltham, MA) per manufacturer’s protocol and incubating overnight. For cAMP measurement in 96-well format, HEK293T cells stably transfected with human RXFP2 (HEK-RXFP2), human RXFP1 (HEK-RXFP1), mouse Rxfp1 (HEK-Rxfp1) or transiently transfected with human RXFP1-RXFP2 chimeric receptors were seeded between 7500 and 30,000 cells per well, depending on cell line responsiveness, in serum-free DMEM medium and incubated overnight at 37 °C, 5% CO2. After 18 h, cells were treated with a titration of compound, 2 μM forskolin, or DMSO vehicle. Control wells were also treated with a titration of INSL3 (Phoenix Pharmaceuticals, Burlingame, CA) or human recombinant relaxin 2 (Peprotech, Cranbury, NJ). For the RXFP2 antagonist experiment, cells were co-treated with 0.28 μM compound or 30 nM INSL3 and a titration of the INSL3 B dimer antagonist[38],[39]. For the INSL3 allosteric modulation experiment, cells were co-treated with 0.025, 0.0025, or 0.00025 μM of compound and a titration of INSL3. Cells were incubated for 1 h at 37 °C, 5% CO2, and then kit cAMP-d2 and anti-cAMP antibody were added per manufacturer protocol. Plates were incubated for 1 h at room temperature and the signal was read on a CLARIOstar plate reader (BMG Labtech, Ortenberg, Germany) at 665 and 620 nm emission wavelengths. […]
# receptors. HTRF cAMP counter-screen of RXFP2 agonists in HEK293T cells expressing a human RXFP1 and b mouse RXFP1. Relaxin 2 was used as positive control for RXFP1 receptor activation. Results are expressed as mean ± SEM of 3
smiles,measurement,setting,value
O=C1Nc2ccc(-c3cc(C(F)(F)F)cc(C(F)(F)F)c3)cc2C(=O)N2CCN(C(=O)COc3ccc(OC(F)(F)F)cc3I)C[C@@H]12 [compound 6641],activation of mouse RXFP1 receptor,HTRF cAMP,do not activate
same,% Eff (cAMP),Log [M] -4.60,-2.207% and -2.077% and -4.472%
same,% Eff (cAMP),Log [M] -5.60,-1.251% and -0.3652% and -2.403%
same,% Eff (cAMP),Log [M] -6.60,-1.454% and 0.6194% and -2.041%
same,% Eff (cAMP),Log [M] -7.60,-0.3802% and -0.7758% and -2.5668%
